Measured values taken from paper PMC7766697, “Toxicological Screening of Four Bioactive Citroflavonoids: In Vitro, In Vivo, and In Silico Approaches” (Molecules, 2020).
“And” between values parts separate entries of the source, which are not always exact repeats. Equal entries are not always repeated. Where two headings read alike, the source gives them in different places.

Columns and labels:
[1] = system: Wistar rats; assay: Acute oral toxicity, OECD Test No. 423 (mortality, signs, LD50, body weight); type: in vivo; settings: oral 300 and 2000 mg/kg, test days 2, 3, 9 and 10
Protocol: Female Wistar rats (250 g b.w.) were used. These animals were obtained from Bioterium from División de Ciencias de la Salud at the Universidad de Quintana Roo. They were maintained under standard environmental conditions (22 ± 3 °C, 12 h/12 h light/dark cycle), and free access to standard rodent diet and water ad libitum. All animal procedures were conducted under our Federal Regulations for Animal Experimentation and Care and were approved by the Institutional Animal Care and Use Committee of the “Universidad Juárez Autónoma de Tabasco” university (Code:2017-001, Approved: October 2017). Rats were acclimatized for 1 week before the start of experimental procedures.
The half lethal dose (LD50) was estimated using the fixed-dose method described in OECD Guidelines for the Testing of Chemicals (Test No. 423: Acute Oral Toxicity-Class Method; OECD, 2001). […] This method allowed a step-by-step assay according to the chosen dose to begin the experiment. Subsequently, depending on the presence or absence of mortality, the decision to continue within the next step is taken, so fewer experimental animals should be used.
(§1) Rats used for this experiment were fasted for 8 h and were organized into two groups of three rats for each dose and each flavonoid. Likewise, the control group received isotonic 0.9% sodium chloride solution (dose: 5 mL/kg). All rats were closely observed for toxic symptoms and behavioral changes (sedation, hyperactivity, writhing, pruritus, feeding and drinking habits, general morphological changes, and bite legs) for 30 min and periodically 24 h post-administration. Animals were observed daily (14 days) and mortality rate recorded. A LD50 was estimated according to criteria of OECD guide 423.
The rats’ body weight in each group was determined and recorded before the treatment initiation and after 14 days. Changes in the body weight at the end of the 14 days were calculated. Once observation time was completed and to detect any adverse effect, blood samples were collected by cardiac puncture after the previous fasting of 8 h. […] In addition, organ weight was determined.

[2] = system: Wistar rats; type: in vivo
Protocol: as §1
The rats’ body weight in each group was determined and recorded before the treatment initiation and after 14 days. Changes in the body weight at the end of the 14 days were calculated. Once observation time was completed and to detect any adverse effect, blood samples were collected by cardiac puncture after the previous fasting of 8 h. For this purpose, rats were anesthetized by intraperitoneally 50 mg/kg sodium pentobarbital. The liver was carefully extracted, rinsed in normal saline, drained on blotting paper, and carefully examined for tissue lesions. In addition, organ weight was determined.
Rat blood samples were analyzed by a hematology auto-analyzer system (Sysmex XS-1000i®, SYSMEX®, Oak Ridge, TN, USA). The parameters quantified on this stage were: blood count-packed cell volume (PCV), red blood cell (RBC) count, hemoglobin (Hb), platelet count, white blood cell (WBC) count, mean cell hemoglobin concentration (MCHC), mean red cell volume (MCV), mean cell hemoglobin (MCH), prothrombin time (PT), and activated partial thromboplastin time (aPTT).

[3] = system: MDCK cells; assay: MTT-based cytotoxicity assay in MDCK cells; type: cell-based, Canine; settings: 48 h, 125 to 750 µg/mL (QRT effect at 250 and 500 µg/mL)
Protocol: (§2) VERO and MDCK cell lines were acquired from American Type Culture Collection (ATCC, Manassas, VA, USA). […] In vitro cytotoxicity assay was performed on Madin-Darby Canine Kidney Epithelial Cells (MDCK) and green Monkey Kidney Cells (VERO) by MTT-based assay. Briefly, cells were seeded in 96-well plates at a density of 2.5 × 10^3 cells/well. […] The absorbance was measured after 45 min using a microplate reader (Multiskan Asent®) at a wavelength of 550 nm. The criteria for categorizing cytotoxicity against MDCK and VERO cells are based on the U.S. National Cancer Institute (NCI). The criteria comprise as follow: […] All results were expressed as mean ± standard error. The results from the in vivo and in vitro experiments were analyzed using software Origin® 8.0. […] The IC50 (half inhibitory concentration) values were calculated in Origin software®, (Northampton, MA, USA) and one-way ANOVA analysis was compared with cisplatin as the control.

[4] = system: Wistar rats; settings: rat, in vivo, po
[5] = system: VERO cells; assay: MTT-based cytotoxicity assay in VERO cells; type: cell-based, green Monkey; settings: 48 h, 125 to 750 µg/mL (QRT effect at 250–750 µg/mL)
Protocol: as §2

[6] = system: Swiss-albino mice; settings: cited from earlier work
[7] = MTT-based cytotoxicity assay in VERO cells; type: cell-based, green Monkey; settings: green monkey, MTT
Protocol: as §2

Compound: O=C1C[C@@H](c2ccc(O)cc2)Oc2cc(O)cc(O)c21 [NARGE, naringenin]
- rats' weight vs control [1]: modifies rats’ weight
- Erythrocytes ([2]; rat, in vivo, po, 300 mg/kg): 6.98±1.18 106/µL
- Hb ([2]; rat, in vivo, po, 300 mg/kg): 12.00 ± 1.81 g/dL
- Hto ([2]; rat, in vivo, po, 300 mg/kg): 36.76±5.31%
- Leukocytes ([2]; rat, in vivo, po, 300 mg/kg): 5.31±0.74 103/µL
- MCH ([2]; rat, in vivo, po, 300 mg/kg): 17.40 ± 0.39 pg
- MCHC ([2]; rat, in vivo, po, 300 mg/kg): 32.53 ± 0.49 g/dL
- MCV ([2]; rat, in vivo, po, 300 mg/kg): 53.46 ± 1.87 fL
- Platelets ([2]; rat, in vivo, po, 300 mg/kg): 726.00±12.26 105/µL
- RBCDW ([2]; rat, in vivo, po, 300 mg/kg): 17.80±1.89%
- APTT ([2]; rat, in vivo, po, 2000 mg/kg): 26.26 ± 1.85 s
- Erythrocytes ([2]; rat, in vivo, po, 2000 mg/kg): 8.03±0.29 106/µL
- Hb ([2]; rat, in vivo, po, 2000 mg/kg): 14.23 ± 0.22 g/dL
- Hto ([2]; rat, in vivo, po, 2000 mg/kg): 44.63±0.44%
- Leukocytes ([2]; rat, in vivo, po, 2000 mg/kg): 5.57±1.20 103/µL
- MCH ([2]; rat, in vivo, po, 2000 mg/kg): 18.05 ± 0.39 pg
- MCHC ([2]; rat, in vivo, po, 2000 mg/kg): 31.25 ± 0.18 g/dL
- MCV ([2]; rat, in vivo, po, 2000 mg/kg): 57.85 ± 1.59 fL
- PT ([2]; rat, in vivo, po, 2000 mg/kg): 15.46 ± 0.71 s
- RBCDW ([2]; rat, in vivo, po, 2000 mg/kg): 18.93±0.14%
- percentage viability / growth of cells [3]: did not change the percentage of growth
- ALB (albumin) ([4]; 300 mg/kg): 3.86 ± 0.10 g/dL
- ALB/GL Ratio ([4]; 300 mg/kg): 1.26 ± 0.08
- ALT ([4]; 300 mg/kg): 39.19 ± 0.77 IU/L
- AST ([4]; 300 mg/kg): 156.06 ± 9.33 IU/L
- DB (direct bilirubin) ([4]; 300 mg/kg): 0.013 ± 0.007 mg/dL
- GL (globulin) ([4]; 300 mg/kg): 3.11 ± 0.25 g/dL
- GLU (glucose) ([4]; 300 mg/kg): 145.29 ± 5.47 mg/dL
- IB (indirect bilirubin) ([4]; 300 mg/kg): 0.051 ± 0.007 mg/dL
- TB (total bilirubin) ([4]; 300 mg/kg): 0.064 ± 0.005 mg/dL
- TP (total protein) ([4]; 300 mg/kg): 6.97 ± 0.30 g/dL
- ALB (albumin) ([4]; 2000 mg/kg): 4.74 ± 0.16 g/dL
- ALB/GL Ratio ([4]; 2000 mg/kg): 1.56 ± 0.14
- ALT ([4]; 2000 mg/kg): 57.68 ± 10.97 IU/L
- AST ([4]; 2000 mg/kg): 149.37 ± 7.16 IU/L
- DB (direct bilirubin) ([4]; 2000 mg/kg): 0.020 ± 0.001 mg/dL
- GL (globulin) ([4]; 2000 mg/kg): 3.08 ± 0.17 g/dL
- GLU (glucose) ([4]; 2000 mg/kg): 175.56 ± 6.80 mg/dL
- IB (indirect bilirubin) ([4]; 2000 mg/kg): 0.045 ± 0.060 mg/dL
- TB (total bilirubin) ([4]; 2000 mg/kg): 0.065 ± 0.007 mg/dL
- TP (total protein) ([4]; 2000 mg/kg): 7.82 ± 0.07 g/dL
- percentage viability / growth of cells [5]: did not change the percentage of growth

Compound: O=c1c(O)c(-c2ccc(O)c(O)c2)oc2cc(O)cc(O)c12 [QRT, Quercetin]
- MCV [2]: 56.45 ± 3.05 fL
- PT [2]: 16.20 ± 2.00 s
- Platelets [2]: 759.00±22.00 105/µL
- RBCDW [2]: 17.95±0.45%
- APTT ([2]; rat, in vivo, po, 50 mg/kg): 14.55 ± 0.25 s
- Hb ([2]; rat, in vivo, po, 50 mg/kg): 14.55 ± 0.65 g/dL
- Hto ([2]; rat, in vivo, po, 50 mg/kg): 45.50±2.30%
- Leukocytes ([2]; rat, in vivo, po, 50 mg/kg): 3.65±0.60 103/µL
- MCH ([2]; rat, in vivo, po, 50 mg/kg): 18.05 ± 0.85 pg
- APTT ([2]; rat, in vivo, po, 300 mg/kg): 15.75 ± 1.45 s
- Erythrocytes ([2]; rat, in vivo, po, 300 mg/kg): 8.12±0.32 106/µL
- Hb ([2]; rat, in vivo, po, 300 mg/kg): 14.67 ± 0.45 g/dL
- Hto ([2]; rat, in vivo, po, 300 mg/kg): 45.73±1.15%
- Leukocytes ([2]; rat, in vivo, po, 300 mg/kg): 4.21±0.38 103/µL
- MCH ([2]; rat, in vivo, po, 300 mg/kg): 18.07 ± 0.20 pg
- MCV ([2]; rat, in vivo, po, 300 mg/kg): 56.37 ± 0.90 fL
- PT ([2]; rat, in vivo, po, 300 mg/kg): 16.00 ± 2.65 s
- Platelets ([2]; rat, in vivo, po, 300 mg/kg): 665.00±125.33 105/µL
- RBCDW ([2]; rat, in vivo, po, 300 mg/kg): 16.80±0.20%
- percentage viability / growth of cells [3]: caused significant differences in the rate of cell viability
- ALB (albumin) ([4]; 50 mg/kg): 3.88 ± 0.04 g/dL
- ALB/GL Ratio ([4]; 50 mg/kg): 1.56 ± 0.087
- GL (globulin) ([4]; 50 mg/kg): 2.50 ± 0.14 g/dL
- GLU (glucose) ([4]; 50 mg/kg): 119.67 ± 8.74 mg/dL
- IB (indirect bilirubin) ([4]; 50 mg/kg): 0.036 ± 0.003 mg/dL
- TB (total bilirubin) ([4]; 50 mg/kg): 0.08 ± 0.006 mg/dL
- TP (total protein) ([4]; 50 mg/kg): 6.38 ± 0.15 g/dL
- ALB (albumin) ([4]; 300 mg/kg): 3.63 ± 0.09 g/dL
- ALB/GL Ratio ([4]; 300 mg/kg): 1.39 ± 0.15
- DB (direct bilirubin) ([4]; 300 mg/kg): 0.016 ± 0.004 mg/dL
- GL (globulin) ([4]; 300 mg/kg): 2.84 ± 0.16 g/dL
- GLU (glucose) ([4]; 300 mg/kg): 149.49 ± 5.00 mg/dL
- IB (indirect bilirubin) ([4]; 300 mg/kg): 0.030 ± 0.006 mg/dL
- TB (total bilirubin) ([4]; 300 mg/kg): 0.05 ± 0.003 mg/dL
- TP (total protein) ([4]; 300 mg/kg): 6.48 ± 0.065 g/dL
- alkaline phosphatase (ALP) ([6]; 128 or 450 mg/kg orally for 14 days): increased
- AST ([6]; higher dose, orally for 14 days): declined
- bilirubin ([6]; only at 128 mg/kg, orally for 14 days): also increased
- percentage viability / growth of cells [5]: produced a decrease in the percentage viability
- IC50 at 48 h [7]: 465 µM and 141 µg/mL
- IC50 at 48 h ([7]; abstract, first value of 'respectively'): 219 ± 7.22 µM
